Tested on: mouse T lymphocytes
Assay: T-cell proliferation assay (ionomycin plus PMA induced T-cell stimulation, tritiated thymidine uptake)
Type: cell-based
Details: T-lymphocyte, standard at 10 ng/ml
Method: The principle of this assay is to measure the proliferation of mouse T lymphocytes stimulated with the combination of ionomycin plus PMA. A positive sample in this assay will inhibit T-cell proliferation, as indicated by reduced tritiated thymidine uptake.
Purified L-683,756, as prepared by HPLC above, was dissolved in absolute ethanol at 1 mg/ml.
Spleens from C57B1/6 mice were taken under sterile conditions and gently dissociated in ice-cold RPMI 1640 culture medium (GIBCO, Grand Island, N.Y.) supplemented with 10% heat-inactivated fetal calf serum (GIBCO). Cells were pelleted by centrifugation at 1500 rpm for 8 minutes. […]
Purified T lymphocytes were resuspended at 2.5 x 10⁵ cells/ml in complete culture medium composed of RPMI 1640 medium with 10% heat-inactivated fetal calf serum, […] glutamine, 1 mM sodium pyruvate, 2 x 10⁻⁵ M 2-mercaptoethanol and 50 µg/ml gentamycin. […] The proliferation of T lymphocytes was assessed by measurement of tritiated thymidine incorporation. […] Radioactivity of filter discs corresponding to individual wells was measured by standard liquid scintillation counting methods (Betacounter). Mean counts per minute of replicate wells were calculated and the results expressed as percent inhibition of tritiated thymidine uptake (proliferation) as follows: [formula]

Q: Which inhibition at 0.01 µg/mL does the source give for `CC[C@@H]1/C=C(\C)C[C@H](C)C[C@H](OC)[C@H]2O[C@@](O)(C(=O)C(=O)N3CCCC[C@H]3C(=O)O[C@H](/C(C)=C/[C@@H]3CC[C@@H](O)[C@H](OC)C3)[C@H](C)[C@@H](O)CC1=O)[C@H](C)C[C@@H]2OC` [L-683,590] here?
A: 99%
